# Reference: PMC12349723, “Computationally accelerated identification of P-glycoprotein inhibitors” (PLOS One, 2025)
# Several values for one entry are separate records, joined by “and”; a condition that tells them apart may be missing. Equal values may be shown once.
# Columns and labels:
# Type in all cases: cell-based, human
# DU145 cells = assay: MTT viability assay, non-P-gp overexpressing DU145 parental line, with or without PTX; details: DU145 cells, 48 h
# Protocol: The chemotherapeutic sensitive DU145 human prostate cancer cells and the multidrug resistant sub-line, DU145-TXR, were generous gifts from Dr. Evan Keller (University of Michigan, Ann Arbor, MI). The MDR, P-gp overexpressing DU145-TXR cells were maintained under positive selection pressure by supplementing complete medium with 10 nM paclitaxel (Acros Organics, NJ). […] The MDR, P-gp overexpressing A2780-ADR cell line was maintained under positive selection pressure by supplementing complete medium with 100 nM doxorubicin (Fisher Scientific, NJ). The non-cancerous HFL1 (human lung fibroblast) cell line cell line was a generous gift from Dr. Robert Harrod (Southern Methodist University, Dallas, TX) and was maintained in complete F12K media consisting of F12K with 10% fetal bovine serum, 100 U/mL penicillin, and 100 µg/mL streptomycin (Gibco). Flasks and 96 well plates that were used with the non-cancerous line HFL1 were pre-treated with 0.1 mg/ml Collagen Type 1 (Gibco) and rinsed with PBS (Fisher).
# Culture of the DU145, DU145-TXR, and HFL1 cell lines was performed as described in [8]. Culture of the A2780 and A2780-ADR cell lines was performed as described in [9]. MTT assays were performed as described in [8] with minor modifications. […] Data represent the mean of two separate experiments, with n = 3 samples per experiment (n = 6 total) (S4 Table).
# (§1) MTT assays measure the reduction of yellow, water soluble 3-(4,5-dimethylthiazol-2-yl)-2,5-diphenyltetrazolium bromide (MTT) to blue, insoluble formazan crystals by cellular reductase processes in living cells. Cells were trypsinized from monolayers and seeded in complete medium in 96 well plates. Cancerous cell lines (DU145, DU145-TXR, A2780, A2780-ADR) were seeded at 3,000 cells per well in complete RPMI medium. The non-cancerous HFL1 line was seeded at 4,000 cells per well in complete F12K medium, in collagen-treated plates (Collagen Type 1, Gibco). Cells were incubated with experimental compounds for 48 hours at 37 °C and 5% CO2 in a humidified incubator. At 48 hours, MTT was added (20 µL/well of 5 mg/mL MTT in PBS) to each well. After incubation for 4 hours, the media was removed, and the formazan crystals were dissolved in 100 µL DMSO per well. Plates containing the semi-adherent A2780 or A2780-ADR lines were spun at 1400 rpm for 3 minutes prior to aspiration of media, and the addition of DMSO. Plates were shaken for 10 minutes at 500 rpm on an Orbital shaker (LabDoctor from MidSci, St Louis, MO). The absorbance was measured at 570 nm using a Bio-Tek Cytation 5 (Bio-Tek, Winooski, VT). The measured absorbance value was correlated with the number of metabolically active cells in that well, corrected for absorbance of media. The percent of cell viability (termed ‘survival’ here) was calculated as a percentage of survival of the control condition, which refers to vehicle-treated (DMSO as vehicle) cells, or vehicle-and-chemotherapeutic-treated cells, if testing a compound’s ability to re-sensitize cells to a chemotherapeutic. Percent survival was calculated using the following equation:
# % Survival=100 × absorbance of experimental cells/mean absorbance of control treated cells
# For DU145-TXR, DU145, HFL1 and A2780 cells – data are the mean ± one standard deviation, 8 samples per compound, from at least two independent trials per compound. […] For A2780-ADR cells, data are the mean ± one standard deviation with 12 samples per compound, from at least two independent trials per compound.
# 67 compounds were chosen from computational screens for testing in vitro. A) DU145-TXR cells were exposed to 15 µM experimental compound with or without 500 nM of the P-gp substrate and chemotherapeutic paclitaxel (PTX).
# A2780-ADR cells = assay: MTT viability assay, reversal of MDR in P-gp overexpressing A2780-ADR cells; details: A2780-ADR cells; for Mean % Survival: mean of 12 samples; for % Survival (individual sample): single samples (trials 1-3, samples 1-4)
# Protocol: (§2) The chemotherapeutic sensitive DU145 human prostate cancer cells and the multidrug resistant sub-line, DU145-TXR, were generous gifts from Dr. Evan Keller (University of Michigan, Ann Arbor, MI). The MDR, P-gp overexpressing DU145-TXR cells were maintained under positive selection pressure by supplementing complete medium with 10 nM paclitaxel (Acros Organics, NJ). In addition to the aforementioned cell lines, the chemotherapeutic sensitive A2780 ovarian cancer cells (93112519, Sigma) and the multidrug resistant A2780-ADR (93112520, Sigma) were maintained in complete RPMI media consisting of RPMI-1640 with L-glutamine, 10% fetal bovine serum (FBS; Corning), 100 U/mL penicillin and 100 μg/mL streptomycin in a humidified incubator at 37 °C and 5% CO2. The MDR, P-gp overexpressing A2780-ADR cell line was maintained under positive selection pressure by supplementing complete medium with 100 nM doxorubicin (Fisher Scientific, NJ). The non-cancerous HFL1 (human lung fibroblast) cell line cell line was a generous gift from Dr. Robert Harrod (Southern Methodist University, Dallas, TX) and was maintained in complete F12K media consisting of F12K with 10% fetal bovine serum, 100 U/mL penicillin, and 100 µg/mL streptomycin (Gibco). Flasks and 96 well plates that were used with the non-cancerous line HFL1 were pre-treated with 0.1 mg/ml Collagen Type 1 (Gibco) and rinsed with PBS (Fisher).
# (§3) Culture of the DU145, DU145-TXR, and HFL1 cell lines was performed as described in [8]. Culture of the A2780 and A2780-ADR cell lines was performed as described in [9]. MTT assays were performed as described in [8] with minor modifications. LC-MS/MS accumulation assays were performed as described in {Nanayakkara, 2018 #173} [9] with some modifications. […] The inhibitor concentration was lowered to 15 µM here, as the goal of the study was to identify compounds that were effective in reversing MDR at low concentrations, and to determine if the expanded virtual-assisted methods improved on our first-draft attempt. Compounds 56–98 were pre-screened using Resazurin cell viability assays: cells were incubated with 15 µM compound with or without 500 nM PTX for 48 hours, after which cell survival was assessed similar to [39]. Data represent the mean of two separate experiments, with n = 3 samples per experiment (n = 6 total) (S4 Table). The top performing compounds from this initial screen were re-tested with MTT viability assays against DU145-TXR cells, as described below.
# as §1, with “The percent of cell viability (termed ‘survival’ here) was calculated as a percentage of survival of the control condition, which refers to vehicle-treated (DMSO as vehicle) cells, or vehicle-and-chemotherapeutic-treated cells, if testing a compound’s ability to re-sensitize cells to a chemotherapeutic. Percent survival was calculated using the following equation:” left out
# DU145-TXR cells = assay: MTT viability assay, reversal of MDR (re-sensitization to paclitaxel) in P-gp overexpressing DU145-TXR cells; details: DU145-TXR; for % Survival, mean: mean of 8 samples
# Protocol: as §2, §3
# as §1, with “The percent of cell viability (termed ‘survival’ here) was calculated as a percentage of survival of the control condition, which refers to vehicle-treated (DMSO as vehicle) cells, or vehicle-and-chemotherapeutic-treated cells, if testing a compound’s ability to re-sensitize cells to a chemotherapeutic. Percent survival was calculated using the following equation:” left out
# A2780 cells = assay: MTT viability assay, parental A2780 cells, with or without PTX; details: A2780 cells; for Mean % Survival: mean of 8 or 12 samples; for % Survival (individual sample): single samples
# Protocol: as §2, §3
# as §1, with “The percent of cell viability (termed ‘survival’ here) was calculated as a percentage of survival of the control condition, which refers to vehicle-treated (DMSO as vehicle) cells, or vehicle-and-chemotherapeutic-treated cells, if testing a compound’s ability to re-sensitize cells to a chemotherapeutic. Percent survival was calculated using the following equation:” left out
# [1] = single samples, 2 trials x 4 samples, listed as VPL
structure (smiles),measurement,setting,value
"COc1ccc(CCN(C)CCCC(C#N)(c2ccc(OC)c(OC)c2)C(C)C)cc1OC (stereo not drawn) [Verapamil, reference compound]","% Survival, Mean, 15 µM compound + 500 nM PTX",DU145 cells; mean of 8 samples,8.6%
same,"% Survival, 15 µM Compound alone (individual samples)",DU145 cells; [1],53%
same,"% Survival, 15 µM compound + 500 nM PTX (individual samples)",DU145 cells; [1],7%
same,viability at 15 µM,"DU145 cells; Homo sapiens, DU-145, 48 h, mean of 8 samples, read-out: % Survival, Mean, 15 µM Compound alone",45.5%
COc1ccc(CCN(C)CCCC(C#N)(c2ccc(OC)c(OC)c2)C(C)C)cc1OC (stereo not drawn) [VER],Mean % Survival,A2780-ADR cells; 15 µM compound + 500 nM PTX,52.3%
same,% Survival (individual sample),A2780-ADR cells; 15 µM compound + 500 nM PTX,58% and 57% and 53% and 42% and 41% and 51% and 47%
same,Mean % Survival,A2780-ADR cells; 15 µM compound alone,84.8%
same,% Survival (individual sample),A2780-ADR cells; 15 µM compound alone,80% and 82% and 85% and 92% and 94% and 95% and 89% and 81% and 77% and 66%
same,"% Survival, mean",DU145-TXR cells; 15 µM Compound Alone,86.2%
same,% Survival,"DU145-TXR cells; 15 µM Compound Alone, trial 1, sample 1",98%
same,% Survival,"DU145-TXR cells; 15 µM Compound Alone, trial 1, sample 2",95%
same,% Survival,"DU145-TXR cells; 15 µM Compound Alone, trial 1, sample 3",96%
same,% Survival,"DU145-TXR cells; 15 µM Compound Alone, trial 1, sample 4",90%
same,% Survival,"DU145-TXR cells; 15 µM Compound Alone, trial 2, sample 1",79%
same,% Survival,"DU145-TXR cells; 15 µM Compound Alone, trial 2, sample 2",74%
same,% Survival,"DU145-TXR cells; 15 µM Compound Alone, trial 2, sample 3",72%
same,% Survival,"DU145-TXR cells; 15 µM Compound Alone, trial 2, sample 4",85%
same,"% Survival, mean","DU145-TXR cells; 15 µM compound + 500 nM PTX (Paclitaxel, Taxol)",21.9%
same,% Survival,"DU145-TXR cells; 15 µM compound + 500 nM PTX (Paclitaxel, Taxol), trial 1, sample 1",19%
same,% Survival,"DU145-TXR cells; 15 µM compound + 500 nM PTX (Paclitaxel, Taxol), trial 1, sample 2",23%
same,% Survival,"DU145-TXR cells; 15 µM compound + 500 nM PTX (Paclitaxel, Taxol), trial 1, sample 3",29%
same,% Survival,"DU145-TXR cells; 15 µM compound + 500 nM PTX (Paclitaxel, Taxol), trial 1, sample 4",18%
same,% Survival,"DU145-TXR cells; 15 µM compound + 500 nM PTX (Paclitaxel, Taxol), trial 2, sample 1",23%
same,% Survival,"DU145-TXR cells; 15 µM compound + 500 nM PTX (Paclitaxel, Taxol), trial 2, sample 2",20%
same,% Survival,"DU145-TXR cells; 15 µM compound + 500 nM PTX (Paclitaxel, Taxol), trial 2, sample 3",23%
same,% Survival,"DU145-TXR cells; 15 µM compound + 500 nM PTX (Paclitaxel, Taxol), trial 2, sample 4",21%
same,Mean % Survival,A2780 cells; 15 µM compound + 500 nM PTX,14.9%
same,% Survival (individual sample),A2780 cells; 15 µM compound + 500 nM PTX,17% and 18% and 12% and 50% and 11% and 10% and 9%
same,Mean % Survival,A2780 cells; 15 µM compound alone,75.9%
same,% Survival (individual sample),A2780 cells; 15 µM compound alone,74% and 75% and 86% and 67% and 64% and 83% and 79%
